Measurements published in ChEMBL document CHEMBL1151896, “3D QSAR of novel estrogen-RGD peptide conjugates: getting insight into structural dependence of anti-osteoporosis activity and side effect of estrogen in ERT” (Bioorg Med Chem, 2009).
Peptide text beside a SMILES is read from it. * marks the point of attachment. X1 = C[C@]12CC[C@@H]3c4ccc(OCC(=O)*)cc4CC[C@H]3[C@@H]1CCC2=O

Key:
Mus musculus [1] = assay: Antiosteoporosis activity against ovariectomized ICR mouse assessed as dry femur weight at 110.3 nmol/kg, po after 30 mins; type: functional
Mus musculus [2] = assay: Toxicity in ovariectomized ICR mouse assessed as tail bleeding time at 110.3 nmol/kg, po for 30 mins; type: organism-based; conditions: in vivo, 0.5 h
Mus musculus [3] = assay: Antiosteoporosis activity against ovariectomized ICR mouse assessed as femur phosphorous content at 110.3 nmol/kg, po after 30 mins; type: functional
Mus musculus [4] = assay: Antiosteoporosis activity against ovariectomized ICR mouse assessed as femur calcium content at 110.3 nmol/kg, po after 30 mins; type: functional
Mus musculus [5] = assay: Toxicity in ovariectomized ICR mouse assessed as change in uterine weight at 110.3 nmol/kg, po after 4 weeks; type: organism-based; conditions: in vivo, 672 h
Mus musculus [6] = assay: Antiosteoporosis activity against ovariectomized ICR mouse assessed as serum phosphorous level at 110.3 nmol/kg, po after 30 mins; type: functional
Mus musculus [7] = assay: Antiosteoporosis activity against ovariectomized ICR mouse assessed as serum calcium level at 110.3 nmol/kg, po after 30 mins; type: functional
Mus musculus [8] = assay: Toxicity in ovariectomized ICR mouse assessed as effect on spleen weight at 110.3 nmol/kg, po after 4 weeks; type: organism-based; conditions: in vivo, 672 h
Mus musculus [9] = assay: Toxicity in ovariectomized ICR mouse assessed as tail bleeding time at 110.3 nmol/kg, po for 90 mins; type: organism-based; conditions: in vivo, 1.5 h
Mus musculus [10] = assay: Toxicity in ovariectomized ICR mouse assessed as effect on liver weight at 110.3 nmol/kg, po after 4 weeks; type: organism-based; conditions: in vivo, 672 h
Mus musculus [11] = assay: Antiosteoporosis activity against ovariectomized ICR mouse assessed as mineral content at 110.3 nmol/kg, po after 30 mins; type: functional
Mus musculus [12] = assay: Antiosteoporosis activity against ovariectomized ICR mouse assessed as femur ash weight at 110.3 nmol/kg, po after 30 mins; type: functional
Mus musculus [13] = assay: Antiosteoporosis activity against ovariectomized ICR mouse assessed as femur length at 110.3 nmol/kg, po after 30 mins; type: functional
Mus musculus [14] = assay: Antiosteoporosis activity against ovariectomized ICR mouse assessed as serum ALP activity at 110.3 nmol/kg, po after 30 mins; type: functional
Mus musculus [15] = assay: Toxicity in ovariectomized ICR mouse assessed as effect on kidney weight at 110.3 nmol/kg, po after 4 weeks; type: organism-based; conditions: in vivo, 672 h
Mus musculus [16] = assay: Toxicity in ovariectomized ICR mouse assessed as effect on body weight at 110.3 nmol/kg, po after 4 weeks; type: organism-based; conditions: in vivo, 672 h
Mus musculus [17] = assay: Toxicity in ovariectomized ICR mouse assessed as effect on lung weight at 110.3 nmol/kg, po after 4 weeks; type: organism-based; conditions: in vivo, 672 h

SMILES	Activity (Mus musculus [1]) [mg]	Activity (Mus musculus [2]) [s]	Activity (Mus musculus [3]) [%]	Activity (Mus musculus [4]) [%]	Activity (Mus musculus [5]) [g]	Activity (Mus musculus [6]) [mM]	Activity (Mus musculus [7]) [mM]	Activity (Mus musculus [8])	Activity (Mus musculus [9]) [s]	Activity (Mus musculus [10])	Activity (Mus musculus [11]) [%]	Activity (Mus musculus [12]) [mg]	Activity (Mus musculus [13]) [cm]	Activity (Mus musculus [14]) [U/L]	Activity (Mus musculus [15])	Activity (Mus musculus [16])	Activity (Mus musculus [17])
C[C@]12CC[C@@H]3c4ccc(OCC(=O)N[C@@H](CCCNC(=N)N)C(=O)NCC(=O)N[C@@H](CC(=O)O)C(=O)N[C@@H](Cc5ccccc5)C(=O)N[C@@H](CCCNC(=N)N)C(=O)NCC(=O)N[C@@H](CC(=O)O)C(=O)N[C@@H](Cc5ccccc5)C(=O)O)cc4CC[C@H]3[C@@H]1CCC2=O (X1-RGDFRGDF-OH)	55.26	579	20.33	59.92	0.051	3.01	3.15	Non-toxic	574	Non-toxic	0.61	35.24	1.64	15.06	Non-toxic	Non-toxic	Non-toxic
C[C@]12CC[C@@H]3c4ccc(OCC(=O)N[C@@H](CCCNC(=N)N)C(=O)NCC(=O)N[C@@H](CC(=O)O)C(=O)N[C@@H](CO)C(=O)N[C@@H](CCCNC(=N)N)C(=O)NCC(=O)N[C@@H](CC(=O)O)C(=O)N[C@@H](CO)C(=O)O)cc4CC[C@H]3[C@@H]1CCC2=O (X1-RGDSRGDS-OH)	55.9	588	21.76	59.95	0.058	2.96	3.08	Non-toxic	516	Non-toxic	0.62	35.78	1.67	13.8	Non-toxic	Non-toxic	Non-toxic
CC(C)[C@H](NC(=O)[C@H](CC(=O)O)NC(=O)CNC(=O)[C@H](CCCNC(=N)N)NC(=O)[C@@H](NC(=O)[C@H](CC(=O)O)NC(=O)CNC(=O)[C@H](CCCNC(=N)N)NC(=O)COc1ccc2c(c1)CC[C@@H]1[C@@H]2CC[C@]2(C)C(=O)CC[C@@H]12)C(C)C)C(=O)O (X1-RGDVRGDV-OH)	55.39	582	21.84	60.5	0.059	3.22	3	Non-toxic	514	Non-toxic	0.62	35.29	1.66	13.27	Non-toxic	Non-toxic	Non-toxic
